Test results reported in PubChem BioAssay (NCI).
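Test compounds were applied to cells in 96-well plates for 48 hours at 5 doses. The concentration for 50% growth inhibition is given as GI50. The concentration for full growth arrest is given as TGI.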 *1 amine or outer side, *2 acyl side, *3 side chain or, on linkers, in order; H or OH if unused. Where a SMILES comes first, the peptide text is derived from it. Bridges are numbered along the chain shown (N, C = ends). [ ]: non-standard residue; d: D form. The star is where a group is joined. Phe(3-F) = N[C@@H](Cc1cccc(F)c1)C(=O)O; Pro(4R-Me) = C[C@H]1CN[C@H](C(=O)O)C1; aThr = C[C@H](O)[C@H](N)C(=O)O; Pip = O=C(O)[C@@H]1CCCCN1; X8 = CCc1ccc(N*)c(F)c1; CO = O=C([*:1])[*:2]

What was measured:
Experiment in all cases: growth of human tumour cells (NCI), 48 h
NCI/ADR-RES ovarian = tested on: NCI/ADR-RES ovarian
A498 renal = tested on: A498 renal
PC-3 prostate = tested on: PC-3 prostate
OVCAR-8 ovarian = tested on: OVCAR-8 ovarian
LOX IMVI melanoma = tested on: LOX IMVI melanoma
HT29 colon = tested on: HT29 colon
ACHN renal = tested on: ACHN renal
MOLT-4 leukemia = tested on: MOLT-4 leukemia
NCI-H522 lung = tested on: NCI-H522 lung
MDA-MB-231 breast = tested on: MDA-MB-231 breast
SF-295 CNS = tested on: SF-295 CNS
OVCAR-5 ovarian = tested on: OVCAR-5 ovarian
SW-620 colon = tested on: SW-620 colon
NCI-H226 lung = tested on: NCI-H226 lung
SK-OV-3 ovarian = tested on: SK-OV-3 ovarian
NCI-H460 lung = tested on: NCI-H460 lung
A549 NSCLC = tested on: A549 NSCLC
CCRF-CEM leukemia = tested on: CCRF-CEM leukemia
KM12 colon = tested on: KM12 colon
UACC-62 melanoma = tested on: UACC-62 melanoma
SK-MEL-28 melanoma = tested on: SK-MEL-28 melanoma
HOP-62 NSCLC = tested on: HOP-62 NSCLC
SNB-19 CNS = tested on: SNB-19 CNS
BT-549 breast = tested on: BT-549 breast
IGROV1 ovarian = tested on: IGROV1 ovarian
RPMI-8226 leukemia = tested on: RPMI-8226 leukemia
MCF7 breast = tested on: MCF7 breast
HOP-92 NSCLC = tested on: HOP-92 NSCLC
HS 578T breast = tested on: HS 578T breast
UO-31 renal = tested on: UO-31 renal
SK-MEL-2 melanoma = tested on: SK-MEL-2 melanoma
OVCAR-4 ovarian = tested on: OVCAR-4 ovarian
T-47D breast = tested on: T-47D breast
SNB-75 CNS = tested on: SNB-75 CNS
OVCAR-3 ovarian = tested on: OVCAR-3 ovarian
MDA-MB-435 = tested on: MDA-MB-435
HCT-116 colon = tested on: HCT-116 colon
U251 CNS = tested on: U251 CNS
HCC-2998 colon = tested on: HCC-2998 colon
HCT-15 colon = tested on: HCT-15 colon
COLO 205 colon = tested on: COLO 205 colon
MALME-3M melanoma = tested on: MALME-3M melanoma
DU-145 prostate = tested on: DU-145 prostate
CAKI-1 renal = tested on: CAKI-1 renal
TK-10 renal = tested on: TK-10 renal
K-562 leukemia = tested on: K-562 leukemia
M14 melanoma = tested on: M14 melanoma
NCI-H23 lung = tested on: NCI-H23 lung
SF-539 CNS = tested on: SF-539 CNS
SK-MEL-5 melanoma = tested on: SK-MEL-5 melanoma
EKVX NSCLC = tested on: EKVX NSCLC
SN12C renal = tested on: SN12C renal
HL-60(TB) leukemia = tested on: HL-60(TB) leukemia
SR leukemia = tested on: SR leukemia
786-0 renal = tested on: 786-0 renal
UACC-257 melanoma = tested on: UACC-257 melanoma
SF-268 CNS = tested on: SF-268 CNS
RXF 393 renal = tested on: RXF 393 renal

With `CCc1ccc(NC(=O)N[C@@H](Cc2cccc(F)c2)C(=O)N[C@@H]2C(=O)N3CCC[C@H]3C(=O)N3CCCC[C@H]3C(=O)N[C@@H](C)C(=O)N3C[C@H](C)C[C@H]3C(=O)O[C@H]2C)c(F)c1` ({X8-CO}-[Phe(3-F)][aThr]P[Pip]A[Pro(4R-Me)]; ester 2-C) the GI50 (NCI/ADR-RES ovarian) was 962 nM, the TGI (NCI/ADR-RES ovarian) was > 51200 nM and the GI50 (A498 renal) was 616 nM. For the same compound, the TGI (A498 renal) was 7340 nM, the GI50 (PC-3 prostate) was 191 nM and the TGI (PC-3 prostate) was > 100000 nM. The GI50 (OVCAR-8 ovarian) was 145 nM, the TGI (OVCAR-8 ovarian) was > 100000 nM and the GI50 (LOX IMVI melanoma) was 369 nM. For the same compound, the TGI (LOX IMVI melanoma) was 16200 nM, the GI50 (HT29 colon) was 352 nM and the TGI (HT29 colon) was 2750 nM. For the same compound, the GI50 (ACHN renal) was 503 nM, the TGI (ACHN renal) was > 53700 nM and the GI50 (MOLT-4 leukemia) was 594 nM. For the same compound, the TGI (MOLT-4 leukemia) was 18100 nM, the GI50 (NCI-H522 lung) was 182 nM and the TGI (NCI-H522 lung) was 6820 nM. For the same compound, the GI50 (MDA-MB-231 breast) was 283 nM, the TGI (MDA-MB-231 breast) was 2270 nM and the GI50 (SF-295 CNS) was 270 nM. It also gave a TGI (SF-295 CNS) of 1710 nM, a GI50 (OVCAR-5 ovarian) of 439 nM and a TGI (OVCAR-5 ovarian) of 4660 nM. For the same compound, the GI50 (SW-620 colon) was 486 nM, the TGI (SW-620 colon) was > 60700 nM and the GI50 (NCI-H226 lung) was 351 nM. For the same compound, the TGI (NCI-H226 lung) was 5230 nM, the GI50 (SK-OV-3 ovarian) was 583 nM and the GI50 (NCI-H460 lung) was 262 nM. For the same compound, the TGI (NCI-H460 lung) was 12900 nM, the GI50 (A549 NSCLC) was 509 nM and the TGI (A549 NSCLC) was > 79500 nM. It also gave a GI50 (CCRF-CEM leukemia) of 252 nM, a TGI (CCRF-CEM leukemia) of 29900 nM and a GI50 (KM12 colon) of 919 nM. The TGI (KM12 colon) was 18000 nM, the GI50 (UACC-62 melanoma) was 369 nM and the TGI (UACC-62 melanoma) was 10100 nM. For the same compound, the GI50 (SK-MEL-28 melanoma) was 589 nM, the TGI (SK-MEL-28 melanoma) was 13100 nM and the GI50 (HOP-62 NSCLC) was 562 nM. For the same compound, the TGI (HOP-62 NSCLC) was > 53200 nM, the GI50 (SNB-19 CNS) was 218 nM and the TGI (SNB-19 CNS) was > 82900 nM. The GI50 (BT-549 breast) was 199 nM, the TGI (BT-549 breast) was 2800 nM and the GI50 (IGROV1 ovarian) was 614 nM. For the same compound, the TGI (IGROV1 ovarian) was > 47700 nM, the GI50 (RPMI-8226 leukemia) was 55.3 nM and the TGI (RPMI-8226 leukemia) was 4340 nM. It also gave a GI50 (MCF7 breast) of 272 nM, a TGI (MCF7 breast) of 19300 nM and a GI50 (HOP-92 NSCLC) of 380 nM. The TGI (HOP-92 NSCLC) was 6750 nM, the GI50 (HS 578T breast) was 264 nM and the TGI (HS 578T breast) was 4580 nM. The GI50 (UO-31 renal) was 377 nM, the TGI (UO-31 renal) was 16500 nM and the GI50 (SK-MEL-2 melanoma) was 243 nM. For the same compound, the TGI (SK-MEL-2 melanoma) was 2020 nM, the GI50 (OVCAR-4 ovarian) was 163 nM and the TGI (OVCAR-4 ovarian) was > 19900 nM. The GI50 (T-47D breast) was 337 nM, the TGI (T-47D breast) was 18900 nM and the GI50 (SNB-75 CNS) was 202 nM. The TGI (SNB-75 CNS) was 3590 nM, the GI50 (OVCAR-3 ovarian) was 337 nM and the TGI (OVCAR-3 ovarian) was 6870 nM. The GI50 (MDA-MB-435) was 183 nM, the TGI (MDA-MB-435) was 6010 nM and the GI50 (HCT-116 colon) was 60.4 nM. It also gave a TGI (HCT-116 colon) of 2620 nM, a GI50 (U251 CNS) of 318 nM and a TGI (U251 CNS) of 31800 nM. For the same compound, the GI50 (HCC-2998 colon) was 353 nM, the TGI (HCC-2998 colon) was 2710 nM and the GI50 (HCT-15 colon) was 347 nM. It also gave a TGI (HCT-15 colon) of 7220 nM, a GI50 (COLO 205 colon) of 180 nM and a TGI (COLO 205 colon) of 511 nM. For the same compound, the GI50 (MALME-3M melanoma) was 464 nM, the TGI (MALME-3M melanoma) was 11400 nM and the GI50 (DU-145 prostate) was 285 nM. The TGI (DU-145 prostate) was > 100000 nM, the GI50 (CAKI-1 renal) was 296 nM and the TGI (CAKI-1 renal) was 13500 nM. For the same compound, the GI50 (TK-10 renal) was 608 nM, the TGI (TK-10 renal) was 29100 nM and the GI50 (K-562 leukemia) was 52.6 nM. For the same compound, the TGI (K-562 leukemia) was > 56200 nM, the GI50 (M14 melanoma) was 214 nM and the TGI (M14 melanoma) was 2090 nM. It also gave a GI50 (NCI-H23 lung) of 425 nM, a TGI (NCI-H23 lung) of 20200 nM and a GI50 (SF-539 CNS) of 541 nM. It also gave a TGI (SF-539 CNS) of 12600 nM, a GI50 (SK-MEL-5 melanoma) of 354 nM and a TGI (SK-MEL-5 melanoma) of 1570 nM. For the same compound, the GI50 (EKVX NSCLC) was 367 nM, the TGI (EKVX NSCLC) was > 58100 nM and the GI50 (SN12C renal) was 294 nM. The TGI (SN12C renal) was > 57300 nM, the GI50 (HL-60(TB) leukemia) was 135 nM and the TGI (HL-60(TB) leukemia) was 1700 nM. The GI50 (SR leukemia) was 380 nM, the TGI (SR leukemia) was 10200 nM and the GI50 (786-0 renal) was 421 nM. It also gave a TGI (786-0 renal) of 75200 nM, a GI50 (UACC-257 melanoma) of 319 nM and a TGI (UACC-257 melanoma) of 5320 nM. For the same compound, the GI50 (SF-268 CNS) was 463 nM, the TGI (SF-268 CNS) was 53400 nM and the GI50 (RXF 393 renal) was 948 nM. For the same compound, the TGI (RXF 393 renal) was 7960 nM.
